We go through eleven molecules from PubChem BioAssay (NCI).

Assay in all cases: NCI anticancer screen, dose series, 48 h
Experiment [1] has as its system CAKI-1 renal.
Experiment [2] has as its system SW-620 colon.
Experiment [3] concerns OVCAR-4 ovarian.
Experiment [4] concerns CCRF-CEM leukemia.
Experiment [5] has as its system IGROV1 ovarian.
Experiment [6] deals with TK-10 renal.
The test system of experiment [7] is M14 melanoma.
Experiment [8] deals with SR leukemia.
Experiment [9] has as its system MOLT-4 leukemia.
Experiment [10] has as its system PC-3 prostate.

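Assay format: 96-well plates, 48-hour exposure. At the GI50, growth is halved. TGI denotes the concentration required for complete inhibition of growth.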 Bounds are passed on as bounds.

Take `C=CCC12CCC(=O)C=C1CCC1(C2)OCCO1` (stereo unspecified): the TGI in experiment [1], in experiment [2], in experiment [3], in experiment [4], in [5] and in experiment [6] was over 100 µM in each case. For the same molecule, the TGI in experiment [7], in [8] and in experiment [9] was over 100 µM in each case.
As for `COc1cc2c(cc1OCCCOC1=C=C=C(c3ccc4c(c3)c3cc(-c5ccc(OCCCOc6cc7c(cc6OC)C(=O)N6CCC[C@H]6C=N7)cc5)ccc3n4S(=O)(=O)c3ccc(C)cc3)C=C1)N=C[C@@H]1CCCN1C2=O`, the GI50 in experiment [1] was 1.29 µM; in experiment [2] it was 1.16 µM; in experiment [3], 3.58 µM; in experiment [4] it was 0.19 µM; in experiment [5], 1.8 µM; in experiment [10], 1.27 µM. Moreover, the GI50 is 1.27 µM in experiment [6], 1.58 µM in experiment [7] and 0.739 µM in experiment [9]. In addition, the TGI is 6.21 µM in experiment [1]; 6.33 µM in experiment [2]; 30.9 µM in experiment [3]; over 50 µM in experiment [4]; 8.69 µM in experiment [5]; over 28.9 µM in experiment [10]. The TGI is 5.05 µM in [6], 6.93 µM in experiment [7] and over 50 µM in experiment [9].
`COc1ccccc1/C=C1\CCC(CNc2ccc(Cl)cc2)C1=O` (stereo unspecified): the TGI in [1] was determined as 13.6 µM; in experiment [2], 20 µM; in experiment [3] it was 28.2 µM; in experiment [4], 19.7 µM; in experiment [5], 22.8 µM; in [6] it was 18.6 µM. Further, the TGI was determined as 9.72 µM in experiment [7], 26.5 µM in experiment [8] and 27.4 µM in [9].
For `COc1ccc(C(O)c2cc3c(N)c(C(=O)Nc4cccc(Cl)c4C)sc3nc2C)cc1` (stereo unspecified), the GI50 in [1] is 0.689 µM; in experiment [2], 0.831 µM; in experiment [3], 0.782 µM; in experiment [4], 0.733 µM; in experiment [5], 0.687 µM; in experiment [10], 0.768 µM. Also, the GI50 is 0.871 µM in experiment [6], 0.872 µM in experiment [7] and 0.846 µM in experiment [9]. For the same molecule, the TGI in [1] came to 1.38 µM; in experiment [2] it was 1.65 µM; in experiment [3], 2 µM; in experiment [4] it was 1.93 µM; in experiment [5] it was 1.44 µM; in experiment [10], 1.63 µM. Further, the TGI came out at 1.8 µM in experiment [6], 1.78 µM in experiment [7] and 2.13 µM in experiment [9].
As to `CSc1ccc(-c2cc(-c3ccc(NC(=O)CCCN4CCCC4)cc3)nc(-c3ccc(NC(=O)CCCN4CCCC4)cc3)c2)cc1`, the GI50 in experiment [1] is 4.94 µM; in [2], 1.79 µM; in experiment [3], 2.91 µM; in experiment [4], 1.9 µM; in experiment [5], 10.3 µM; in [10] it was 1.8 µM. The GI50 in [6] is 4.56 µM; in experiment [7] it was 4.23 µM; in experiment [9], 1.79 µM. The TGI in experiment [1] came to 21.3 µM; in experiment [2] it was 3.29 µM; in experiment [3], 12.9 µM; in experiment [4], 3.61 µM; in [5], 33.8 µM; in experiment [10], 3.4 µM. For the same molecule, the TGI is 17.5 µM in experiment [6], 17.4 µM in experiment [7] and 3.62 µM in [9].
As to `CNS(=O)(=O)NN(C)S(=O)(=O)c1ccc(Cl)cc1`, the TGI in experiment [1], in [2], in experiment [3], in experiment [4], in experiment [5] and in experiment [6] was over 100 µM throughout. Also, the TGI in [7], in experiment [8] and in [9] was over 100 µM each time.
For the molecule `CS(=O)(=O)OCCN1CCN(C(=O)c2cccc3c(Nc4ccc(S(N)(=O)=O)cc4)c4ccccc4nc23)CC1`, the TGI was over 100 µM in experiment [1]; over 55.8 µM in experiment [2]; over 100 µM in experiment [3]; over 63 µM in experiment [4]; over 100 µM in [5]; over 100 µM in experiment [6]. Moreover, the TGI in experiment [7], in experiment [8] and in experiment [9] was over 100 µM in each case.
For the molecule `CCN(CC)c1ccc(N=C2C=CC(=O)c3ncccc32)c(C)c1`, the TGI amounted to 23.4 µM in experiment [1]; 7.12 µM in experiment [2]; 4.93 µM in [3]; 14.6 µM in experiment [4]; 21 µM in experiment [5]; 29.8 µM in experiment [6]. The figures for the TGI in [7], in experiment [8] and in experiment [9] were 13.4 µM, 6.51 µM and 6.14 µM, respectively.
With `Cn1cc(NC(=O)c2cc(NC(=O)Nc3cc(C(=O)Nc4cc(C(=O)NCCC(=N)N)n(C)c4)n(C)c3)cn2C)cc1C(=O)NCCC(=N)N`, the TGI is 92.1 µM in experiment [1]; over 100 µM in experiment [2]; over 100 µM in experiment [3]; 77 µM in experiment [4]; 68.7 µM in [5]; 54.7 µM in [6]. The TGI in experiment [7] was 57.2 µM; in [8], over 100 µM; in experiment [9], over 100 µM.
As to `CC(C)COC(=O)N1N=NC2C3OC(CC3=O)C21` (stereo unspecified), the TGI was over 100 µM in [1]; over 100 µM in experiment [2]; over 100 µM in [3]; over 100 µM in experiment [4]; over 31.6 µM in experiment [5]; over 100 µM in experiment [6]. Also, the TGI in experiment [7], in experiment [8] and in [9] was over 100 µM in each case.
In the case of `CC(=O)O[C@H]1CC[C@@]2(C)C(CC[C@]3(C)C2CC[C@]2(C)Oc4c(C)cc(O)cc4C[C@@H]23)C1(C)C` (stereo partly specified), the TGI in experiment [1] stood at 21.8 µM; in [2] it was 5.71 µM; in [3] it was 22.2 µM; in [4], 16.8 µM; in [5], 30 µM; in experiment [6], 29.3 µM. The TGI in [7] came to 27.5 µM; in experiment [8], 7.12 µM; in experiment [9], 9.75 µM.
